Assay results reported in patent publication US11415579B2, “Assay for measuring a rate of reaction between a target and a ligand candidate” (Imperial College Innovations Ltd., priority 2016, dated 2022).

Experiments:
[1] = target: T1, Cdk2[C177A, F80C, K278C] (Homo sapiens, UniProt P24941, C177A/F80C/K278C); test: Kinetic thiol consumption assay with mutant Cdk2 as model thiol; format: binding; design: unit not given here; conditions: 500 μM ligand, 5 μM thiol, phosphate buffer pH 8
T1 construct: poly-histidine; made in house; host or cells: E. coli
Method: (§1) A library of 120 acrylamides was screened against a) human cyclin-dependent kinase 2 (Cdk2, which contains one surface exposed cysteine residue—C177), prepared by cloning cDNA into the pRSETA bacterial expression vector to generate a poly-histidine tagged Cdk2 fusion that was purified from E. coli using standard techniques, and b) a model thiol (specific details are given below). The structures of these 120 acrylamides are set out in Table 1, above.
(§2) To wells containing 150 μL thiol (Cdk2 or model thiol) (5 μM) in degassed phosphate buffer (pH 8) was added immobilized TCEP beads (2% v/v).
(§3) After incubation of the fluorescence plates for 1 hour at room temperature, fluorescence measurements (excitation/emission of 380/470 nm) were taken on a PerkinElmer EnVision multilabel plate reader and processed with EnVision Workstation version 1.12.
(§4) Fluorescence measurements were normalized against a DMSO/thiol only control and plotted against time.
(§5) Rate constants were calculated using GraphPad software Prism version 6 by fitting a first order exponential decay to the data. The rate constant for each acrylamide with Cdk2 was divided by the rate constant for that fragment with the model thiol to provide the rate enhancement for each ligand candidate.
The model thiol used in Example 2 is a mutant form of human Cdk2 (C177A, F80C, K278C) which contains two engineered surface exposed cysteine residues. Mutations were introduced by site-directed mutagenesis and the resulting cDNA was cloned into the pRSETA bacterial expression vector to generate a poly-histidine tagged Cdk2 fusion that was purified from E. coli using standard techniques.

[2] = target: T2, human cyclin-dependent kinase 2 (Cdk2) (Homo sapiens, UniProt P24941); test: Kinetic thiol consumption assay with wild type Cdk2 (C177); format: binding; design: key to Rate enhancement, Cdk2 WT: k(Cdk2) divided by k(model thiol); Rate constant with Cdk2 (k(Cdk2)): unit not given here; conditions: for Rate constant with Cdk2 (k(Cdk2)): 500 μM ligand, 5 μM thiol, phosphate buffer pH 8; for k(Cdk2)/k(GSH) rate enhancement: model thiol glutathione; for Rate enhancement, Cdk2 WT: no additional mutations; for Rate constant with Cdk2 WT: Protein: Cdk2, cysteine position WT, in h^-1
T2 construct: poly-histidine; made in house; host or cells: E. coli
Method: as §1, §2, §3, §4, §5

[3] = Kinetic thiol consumption assay with model thiol glutathione; format: physicochemical; design: Rate constant with glutathione (k(GSH)): unit not given here; conditions: for Rate constant with glutathione (k(GSH)): 500 μM ligand, 5 μM thiol, phosphate buffer pH 8; for Rate constant with Glutathione: Protein: Glutathione, cysteine position NA, in h-1
Method: as §1, §2, §3, §4, §5
The model thiol in Example 1 is glutathione (GSH). Hits were defined as fragments where kCdk2/kGSH>5.8 (empirically determined as 3 standard deviations over the mean).

[4] = target: T3, Cdk2(S181C) (C177A) (Homo sapiens, UniProt P24941, C177A/S181C); test: Kinetic thiol consumption assay with Cdk2 mutant S181C; format: binding; design: key to Rate enhancement, Cdk2 S181C: rate constant with Cdk2 ÷ rate constant with model thiol (fold); conditions: additional mutation C177A; for Rate constant with Cdk2 S181C: Protein: Cdk2, cysteine position S181C, in h^-1
T3 construct: poly-histidine; made in house; host or cells: E. coli
Method: as §2, §3, §4, §5
(§6) A further set of set of additional Cdk2 mutants were screened, all containing the C177A mutation and therefore with only one cysteine on the surface: • F80C (without the K278C mutation) • H71C • S276C • N272 • T182C • R122C • S181C
(§7) Mutations were introduced by site-directed mutagenesis and the resulting cDNA was cloned into the pRSETA bacterial expression vector to generate a poly-histidine tagged Cdk2 fusion that was purified from E. coli using standard techniques.

[5] = target: T4, Cdk2(R122C) (C177A) (Homo sapiens, UniProt P24941, C177A/R122C); test: Kinetic thiol consumption assay with Cdk2 mutant R122C; format: binding; design: key to Rate enhancement, Cdk2 R122C: rate constant with Cdk2 ÷ rate constant with model thiol (fold); conditions: additional mutation C177A; for Rate constant with Cdk2 R122C: Protein: Cdk2, cysteine position R122C, in h-1
T4 construct: poly-histidine; made in house; host or cells: E. coli
Method: as §2, §3, §4, §5, §6, §7

[6] = target: T5, Cdk2(T182C) (C177A) (Homo sapiens, UniProt P24941, C177A/T182C); test: Kinetic thiol consumption assay with Cdk2 mutant T182C; format: binding; design: key to Rate enhancement, Cdk2 T182C: rate constant with Cdk2 ÷ rate constant with model thiol (fold); conditions: additional mutation C177A; for Rate constant with Cdk2 T182C: Protein: Cdk2, cysteine position T182C, in h^-1
T5 construct: poly-histidine; made in house; host or cells: E. coli
Method: as §2, §3, §4, §5, §6, §7

[7] = target: T6, Cdk2(N272C) (C177A) (Homo sapiens, UniProt P24941, C177A/N272C); test: Kinetic thiol consumption assay with Cdk2 mutant N272C; format: binding; design: key to Rate enhancement, Cdk2 N272: rate constant with Cdk2 ÷ rate constant with model thiol (fold); conditions: for Rate enhancement, Cdk2 N272: Cdk2 N272, additional mutation C177A; for Rate constant with Cdk2 N272C: Protein: Cdk2, cysteine position N272C, additional mutation C177A, in h^-1
T6 construct: poly-histidine; made in house; host or cells: E. coli
Method: as §2, §3, §4, §5, §6, §7

[8] = target: T7, Cdk2(C177A, F80C) (Homo sapiens, UniProt P24941, C177A/F80C); test: Kinetic thiol consumption assay with Cdk2 mutant F80C, incl. kobs versus concentration (Kd, k2); format: binding; design: key to Rate enhancement, Cdk2 F80C: Cdk2 rate constant divided by model-thiol rate constant; conditions: additional mutation C177A; for Rate constant with Cdk2 F80C: Protein: Cdk2, cysteine position F80C, in h^-1
T7 construct: poly-histidine; made in house; host or cells: E. coli
Method: Therefore the assay can be used to calculate both k2 and Kd by experimentally determining kobs at a suitable range of ligand candidate concentrations. Typically Kd and k2 would then be determined by fitting a hyperbolic curve to a plot of kobs against ligand candidate concentration (FIG. 9).
as §2, §3, §4, §5, §6, §7
Rate constants were calculated as described in the methodology section of Examples 1 and 2.

[9] = target: T8, Cdk2(S276C) (C177A) (Homo sapiens, UniProt P24941, C177A/S276C); test: Kinetic thiol consumption assay with Cdk2 mutant S276C; format: binding; design: key to Rate enhancement, Cdk2 S276C: rate constant with Cdk2 ÷ rate constant with model thiol (fold); conditions: additional mutation C177A; for Rate constant with Cdk2 S276C: Protein: Cdk2, cysteine position S276C, in h^-1
T8 construct: poly-histidine; made in house; host or cells: E. coli
Method: as §2, §3, §4, §5, §6, §7

[10] = target: T9, Cdk2(H71C) (C177A) (Homo sapiens, UniProt P24941, C177A/H71C); test: Kinetic thiol consumption assay with Cdk2 mutant H71C; format: binding; design: key to Rate enhancement, Cdk2 H71C: rate constant with Cdk2 ÷ rate constant with model thiol (fold); conditions: additional mutation C177A; for Rate constant with Cdk2 H71C: Protein: Cdk2, cysteine position H71C, in h^-1
T9 construct: poly-histidine; made in house; host or cells: E. coli
Method: as §2, §3, §4, §5, §6, §7

| Rate enhancement, Cdk2 S181C [4] | Rate constant with Cdk2 S181C [4] | Rate enhancement, Cdk2 R122C [5] | Rate constant with Cdk2 R122C [5] | Rate enhancement, Cdk2 T182C [6] | Rate constant with Cdk2 T182C [6] | Rate enhancement, Cdk2 N272 [7] | Rate constant with Cdk2 N272C [7] | Rate enhancement, Cdk2 WT [2] | Rate constant with Cdk2 WT [2] | Rate enhancement, Cdk2 F80C [8] | Rate constant with Cdk2 F80C [8] | Rate enhancement, Cdk2 S276C [9] | Rate constant with Cdk2 S276C [9] | Rate enhancement, Cdk2 H71C [10] | Rate constant with Cdk2 H71C [10] | Compound | Rate constant with Glutathione [3] | further results |
| --- | --- | --- | --- | --- | --- | --- | --- | --- | --- | --- | --- | --- | --- | --- | --- | --- | --- | --- |
| – | – | – | – | – | – | – | – | – | – | – | – | – | – | – | – | C=CC(=O)N(c1cccc2ncccc12)C1CCC1 [CA-032] | – | Rate constant with Cdk2[C177A, F80C, K278C] (k(Cdk2_mut)) [1]: 0.01104; Rate constant with Cdk2 (k(Cdk2)) [2]: 0.02299; k(Cdk2)/k(Cdk2_mut) rate enhancement ([2]; model thiol Cdk2[C177A, F80C, K278C]): 2.082; k(Cdk2)/k(GSH) rate enhancement [2]: 1.4; Rate constant with glutathione (k(GSH)) [3]: 0.01642 |
| 0.953 | 0.002313 | 0.304 | 0.0007379 | 0.5731 | 0.001391 | 0.3641 | 0.0008836 | 1.986 | 0.004821 | 0.5052 | 0.001226 | 0.3126 | 0.0007587 | 0 | – | C=CC(=O)NC1(C(N)=O)CCCCC1 [EL-1170] | 0.002427 | Rate constant with Cdk2 (k(Cdk2)) [2]: 0.00308; k(Cdk2)/k(GSH) rate enhancement [2]: 1.271; Rate constant with glutathione (k(GSH)) [3]: 0.00243 |
| 0.06554 | 0.4008 | 0.2211 | 1.352 | 1.394 | 8.524 | 0.3977 | 2.432 | 1.608 | 9.832 | 0.0006656 | 0.00407 | 0.5145 | 3.146 | 0.3485 | 2.131 | C=CS(=O)(=O)c1ccccc1 [EN001] | 6.115 | – |
| 0.08978 | 0.03286 | 0.1248 | 0.04566 | 0 | – | 0.243 | 0.08895 | 4.361 | 1.596 | 0.01666 | 0.006096 | 4.615 | 1.689 | 0.3522 | 0.1289 | O=C(CCl)N1CCSc2ccccc21 [EN004] | 0.366 | – |
| 5.886 | 0.01491 | 0.5681 | 0.001439 | 11.33 | 0.02869 | 0 | – | 6.167 | 0.01562 | 0.8693 | 0.002202 | 13.55 | 0.03433 | 0.852 | 0.002158 | O=C(CCl)NCCc1c[nH]c2ccccc12 [EN005] | 0.002533 | – |
| 4.709 | 0.01045 | 0.411 | 0.000912 | 34.33 | 0.07618 | 5.777 | 0.01282 | 1.315 | 0.002918 | 7.7693E−12 | 1.724E−14 | 74.76 | 0.1659 | 12.95 | 0.02873 | O=C(c1ccccc1)[C@@H]1O[C@H]1c1ccccc1 [EN006] | 0.002219 | – |
| 0.3144 | 0.1896 | 0.3799 | 0.2291 | 4.219 | 2.544 | 0.198 | 0.1194 | 2.833 | 1.708 | 0.00861 | 0.005192 | 0.9531 | 0.5747 | 0.1025 | 0.06183 | O=S1(=O)C=CC(Br)C1 (stereo not shown) [EN010] | 0.603 | – |

| Compound | Rate enhancement, Cdk2 S181C [4] | Rate constant with Cdk2 S181C [4] | Rate enhancement, Cdk2 R122C [5] | Rate constant with Cdk2 R122C [5] | Rate enhancement, Cdk2 T182C [6] | Rate constant with Cdk2 T182C [6] | Rate enhancement, Cdk2 N272 [7] | Rate constant with Cdk2 N272C [7] | Rate enhancement, Cdk2 WT [2] | Rate constant with Cdk2 WT [2] | Rate enhancement, Cdk2 F80C [8] | Rate constant with Cdk2 F80C [8] | Rate enhancement, Cdk2 S276C [9] | Rate constant with Cdk2 S276C [9] | Rate enhancement, Cdk2 H71C [10] | Rate constant with Cdk2 H71C [10] | Rate constant with Glutathione [3] | further results |
| --- | --- | --- | --- | --- | --- | --- | --- | --- | --- | --- | --- | --- | --- | --- | --- | --- | --- | --- |
| O=C(CCl)N1CCCCCC1 [EN011] | 0.09796 | 0.01298 | 0.02161 | 0.002863 | 0.4574 | 0.06061 | 0.1463 | 0.01938 | 0.6051 | 0.08018 | 0 | – | 1.075 | 0.1424 | 0.08604 | 0.0114 | 0.1325 | – |
| CC1CN(C(=O)CCl)CC(C)O1 (stereo not shown) [EN012] | 0.067 | 0.01809 | 0.02811 | 0.00759 | 0.3161 | 0.08536 | 0.1055 | 0.02849 | 1.086 | 0.2933 | 0 | – | 0.5904 | 0.1594 | 0.03607 | 0.009738 | 0.27 | – |
